molecular target: PDE9A (Homo sapiens (Human), UniProt O76083); test: PDE9A inhibition, fluorescence polarization assay (IMAP-FP screening express kit); assay type: biochemical; settings: 10 μM of the compound
Experimental: The inhibitory activity of the representative compounds according to the present invention against phosphodiesterase 9A was tested based on the polarization assay (IMAP-FP screening express kit) provided by MDS (MDS Analytical Technologies, Sunyvale, CA, USA). As a buffer solution, a reaction solution (a reaction solution containing 0.01% Tween 20 provided by MDS was diluted 5 times, then 5 mM DTT is added) and a polarization detection solution (binding solution A and B provided by MDS were mixed at a ratio of 3:1 and IMAP binding reagent 1/600 was added) were prepared. 100 μM of the substrate (Fl-cGMP substrate; MDS) and 3.6 μg/ml of the enzyme PDE9A (ab54113; abcam) were prepared. 3.6 μg/ml PDE9A and 100 μM substrate were diluted to 20 ng/ml (final reaction concentration: 5 ng/ml) and 400 nM (final reaction concentration: 100 nM), respectively. The buffer solution used for all dilution and preparation processes was 1× reaction solution with 1 mM DTT added, and the polarization detection solution was used to induce polarization at the end.
The prepared samples were dispensed on black microplates (Multiwell 384 well plates, #3573, Corning Life Sciences, Lowell, MA, USA) using a 16-channel pipette (multi 16-channel, Finnpipette, Thermo Scientific, Essex, UK). The total reaction volume per well is 20 μl. At this time, 10 μl of 2% DMSO, 5 μl of substrate solution, and 5 μl of reaction solution were used as a negative control, and 10 μl of 2% DMSO, 5 μl of substrate solution, and 5 μl of PDE9A solution were used as a positive control. As the experimental group, 10 μl of the compound prepared in Example, 5 μl of the substrate solution, and 5 μl of the PDE9A solution were used. After pretreatment between the compound and the enzyme was performed for about 10 minutes before the enzyme-substrate reaction, 5 μl of cGMP was added to induce the enzyme reaction. During the reaction, each compound, enzyme, and substrate occupied 50%, 25%, and 25% of the total volume, respectively, and they were prepared at high concentrations of 2, 4, and 4 times, respectively, immediately before addition. After the enzymatic reaction, it was shaken lightly for 1 minute and the enzyme reaction was induced at room temperature for 1 hour. Then, 60 μl of a polarization detection solution prepared in advance was added to induce polarization.
Nanoparticles composed of trivalent metal ions are mixed in the fluorescence detection solution, which combines with phosphoric acid expose by enzymatic reaction to increase the molecular weight and induce polarization. After leaving for 2 hours at room temperature, the polarization (Fluorescence Polarization, FP) value was measured using a multilabel counter (Envision, PerkinElmer, Turku, Finland) (emission wavelength: P-535 nm, S-535 nm, excitation wavelength: 480 nm), and the result was expressed as an IC50 value, which is the concentration of the compound that inhibited PDE9A by 50% in vitro (Table 2).

PDE9A, sequence (O76083 whole entry): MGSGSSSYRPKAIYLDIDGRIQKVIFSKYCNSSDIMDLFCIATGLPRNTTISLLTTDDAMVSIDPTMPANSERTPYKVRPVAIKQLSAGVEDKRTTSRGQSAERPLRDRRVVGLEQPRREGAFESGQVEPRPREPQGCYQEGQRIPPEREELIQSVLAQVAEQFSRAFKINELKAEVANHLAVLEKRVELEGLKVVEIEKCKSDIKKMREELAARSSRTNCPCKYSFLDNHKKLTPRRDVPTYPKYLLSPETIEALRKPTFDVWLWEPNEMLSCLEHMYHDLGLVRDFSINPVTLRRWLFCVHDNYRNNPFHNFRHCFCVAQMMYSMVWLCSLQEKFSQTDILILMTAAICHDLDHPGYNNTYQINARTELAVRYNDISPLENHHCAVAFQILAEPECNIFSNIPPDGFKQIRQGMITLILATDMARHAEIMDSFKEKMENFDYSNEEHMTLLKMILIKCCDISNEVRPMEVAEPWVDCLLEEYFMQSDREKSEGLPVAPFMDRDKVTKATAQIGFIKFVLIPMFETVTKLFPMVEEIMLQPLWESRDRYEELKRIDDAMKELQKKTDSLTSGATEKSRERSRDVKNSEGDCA

| inhibition at 10 µM [%] | Structure (SMILES) |
| --- | --- |
| 38.9 | O=c1[nH]c(SCc2nc3cc(Cl)c([N+](=O)[O-])cc3o2)nc2c1cnn2-c1ccccc1 [Example 31] |
| 51.5 | O=c1[nH]c(SCc2nc3ccc([N+](=O)[O-])cc3o2)nc2c1cnn2-c1ccccc1 [Example 28, 6-(((6-nitrobenzo[d]oxazol-2-yl)methyl)thio)-1-phenyl-1,5-dihydro-4H-pyrazolol[3,4-d]pyrimidin-4-one] |

same assay, conditions: Fl-cGMP substrate 100 nM, PDE9A 5 ng/ml, 1 hour at room temperature

| IC50 [nM] | Structure (SMILES) |
| --- | --- |
| 100 | O=c1[nH]c(SCc2nc3cc(Br)ccc3o2)nc2c1cnn2-c1ccccc1 [Example 7, 6-(((5-bromobenzo[d]oxazol-2-yl)methyl)thio)-1-phenyl-1,5-dihydro-4H-pyrazolo[3,4-d]pyrimidin-4-one] |
| 2400 | O=c1[nH]c(SCc2nc3cc([N+](=O)[O-])ccc3o2)nc2c1cnn2-c1ccccc1 [Example 29, 6-(((5-nitrobenzo[d]oxazol-2-yl)methyl)thio)-1-phenyl-1,5-dihydro-4H-pyrazolo[3,4-d]pyrimidin-4-one] |
| 3 | COc1ccc2nc(CSc3nc4c(cnn4C4CCOCC4)c(=O)[nH]3)oc2c1 [Example 56, 6-(((6-methoxybenzo[d]oxazol-2-yl)methyl)thio)-1-(tetrahydro-2H-pyran-4-yl)-1,5-dihydro-4H-pyrazolo[3,4-d]pyrimidin-4-one] |
| 19 | O=c1[nH]c(SCc2nc3cc(Cl)cc(Cl)c3o2)nc2c1cnn2C1CCOCC1 [Example 54, 6-(((5,7-dichlorobenzo[d]oxazol-2-yl)methyl)thio)-1-(tetrahydro-2H-pyran4-yl)-1,5-dihydro-4H-pyrazolo[3,4-d]pyrimidin-4-one] |
| 220 | O=c1[nH]c(SCc2nc3ccccc3o2)nc2c1cnn2C1CC1 [Example 10, 6-((benzo[d]oxazol-2-ylmethyl)thio)-1-cyclopropyl-1,5-dihydro-4H-pyrazolo[3,4-d]pyrimidin-4-one] |
| 1720 | O=c1[nH]c(SCc2nc3c([N+](=O)[O-])cccc3o2)nc2c1cnn2-c1ccccc1 [Example 30, 6-(((4-nitrobenzo[d]oxazol-2-yl)methyl)thio)-1-phenyl-1,5-dihydro-4H-pyrazolo[3,4-d]pyrimidin-4-one] |
| 4 | O=c1[nH]c(SCc2nc3ccccc3o2)nc2c1cnn2C1CCCCC1 [Example 12, 6-((benzo[d]oxazol-2-ylmethyl)thio)-1-cyclohexyl-1,5-dihydro-4H-pyrazolol[3,4-d]pyrimidin-4-one] |
| 950 | Cc1cc(C)c2oc(CSc3nc4c(cnn4-c4ccccc4)c(=O)[nH]3)nc2c1 [Example 33, 6-(((5,7-dimethylbenzo[d]oxazol-2-yl)methyl)thio)-1-phenyl-1,5-dihydro-4H-pyrazolo[3,4-d]pyrimidin-4-one] |
| 12 | Cc1ccc2nc(CSc3nc4c(cnn4C4CCC(F)(F)CC4)c(=O)[nH]3)oc2c1 [Example 13, 6-(((6-methylbenzo[d]oxazol-2-yl)methyl)thio)-1-(4,4-difluorocyclohexyl)-1,5-dihydro-4H-pyrazolo[3,4-d]pyrimidin-4-one] |

Continued, compound first:

| Structure (SMILES) | IC50 [nM] |
| --- | --- |
| O=c1[nH]c(SCc2nc3cc(C(F)(F)F)ccc3o2)nc2c1cnn2C1CCC(F)(F)CC1 [Example 47, 1-(4,4-difluorocyclohexyl)-6-(((5-(trifluoromethyl)benzo[d]oxazol-2-yl)methyl)thio)-1,5-dihydro-4H-pyrazolo[3,4-d]pyrimidin-4-one] | 120 |
| Cc1ccc2nc(CSc3nc4c(cnn4-c4ccccc4)c(=O)[nH]3)oc2c1 [Example 5, 6-(((6-methylbenzo[d]oxazol-2-yl)methyl)thio)-1-phenyl-1,5-dihydro-4H-pyrazolol[3,4-d]pyrimidin-4-one] | 49 |
| CC(C)(C)c1ccc2oc(CSc3nc4c(cnn4C4CCOCC4)c(=O)[nH]3)nc2c1 [Example 53, 6-(((5-(tert-butyl)benzo[d]oxazol-2-yl)methyl)thio)-1-(tetrahydro-2H-pyran4-yl)-1,5-dihydro-4H-pyrazolo[3,4-d]pyrimidin-4-one] | 45 |
| O=c1[nH]c(SCc2nc3cc([N+](=O)[O-])ccc3o2)nc2c1cnn2C1CCC(F)(F)CC1 [Example 38, 1-(4,4-difluorocyclohexyl)-6-(((5-nitrobenzo[d]oxazol-2-yl)methyl)thio)-1,5-dihydro-4H-pyrazolo[3,4-d]pyrimidin-4-one] | 45 |
| Cc1ccc2nc(CSc3nc4c(cnn4C4CCCCC4)c(=O)[nH]3)oc2c1 [Example 16, 6-(((6-methylbenzo[d]oxazol-2-yl)methyl)thio)-1-cyclohexyl-1,5-dihydro-4H-pyrazolo[3,4-d]pyrimidin-4-one] | 6 |
| Cc1cccc2oc(CSc3nc4c(cnn4C4CCC(F)(F)CC4)c(=O)[nH]3)nc12 [Example 41, 1-(4,4-difluorocyclohexyl)-6-(((4-methylbenzo[d]oxazol-2-yl)methyl)thio)-1,5-dihydro-4H-pyrazolo[3,4-d]pyrimidin-4-one] | 22 |
| Cc1ccc2nc(C(C)Sc3nc4c(cnn4C4CCC(F)(F)CC4)c(=O)[nH]3)oc2c1 (centres unmarked) [Example 22, 1-(4,4-difluorocyclohexyl)-6-((1-(6-methylbenzo[d]oxazol-2-yl)ethyl)thio)-1,5-dihydro-4H-pyrazolo[3,4-d]pyrimidin-4-one] | 6 |
| O=c1[nH]c(SCc2nc3ccccc3o2)nc2c1cnn2C1CCSCC1 [Example 9, 6-((benzo[d]oxazol-2-ylmethyl)thio)-1-(tetrahydro-2H-thiopyran-4-yl)-1,5-dihydro-4H-pyrazolo[3,4-d]pyrimidin-4-one] | 6 |
| O=c1[nH]c(SCc2nc3ccc([N+](=O)[O-])cc3o2)nc2c1cnn2C1CCOCC1 [Example 48, 6-(((6-nitrobenzo[d]oxazol-2-yl)methyl)thio)-1-(tetrahydro-2H-pyran-4-yl)-1,5-dihydro-4H-pyrazolo[3,4-d]pyrimidin-4-one] | 23 |
| O=c1[nH]c(SCc2nc3cc(Cl)c([N+](=O)[O-])cc3o2)nc2c1cnn2C1CCOCC1 [Example 51, 6-(((5-chloro-6-nitrobenzo[d]oxazol-2-yl)methyl)thio)-1-(tetrahydro-2H-pyran-4-yl)-1,5-dihydro-4H-pyrazolo[3,4-d]pyrimidin-4-one] | 35 |
| O=c1[nH]c(SCc2nc3ccccc3o2)nc2c1cnn2-c1ccccc1 [Example 2, 6-((benzo[d]oxazol-2-ylmethyl)thio)-1-phenyl-1,5-dihydro-4H-pyrazolo[3,4-d]pyrimidin-4-one] | 49 |
| O=c1[nH]c(SCc2nc3cc(Cl)cc(Cl)c3o2)nc2c1cnn2C1CCC(F)(F)CC1 [Example 43, 6-(((5,7-dichlorobenzo[d]oxazol-2-yl)methyl)thio)-1-(4,4-difluorocyclohexyl)-1,5-dihydro-4H-pyrazolo[3,4-d]pyrimidin-4-one] | 120 |
| CC(Sc1nc2c(cnn2-c2ccccc2)c(=O)[nH]1)c1nc2ccccc2o1 (centres unmarked) [Example 19, 6-((1-(benzo[d]oxazol-2-yl)ethyl)thio)-1-phenyl-1,5-dihydro-4H-pyrazolo[3,4-d]pyrimidin-4-one] | 28 |
| O=c1[nH]c(SCc2nc3cc([N+](=O)[O-])ccc3o2)nc2c1cnn2C1CCOCC1 [Example 49, 6-(((5-nitrobenzo[d]oxazol-2-yl)methyl)thio)-1-(tetrahydro-2H-pyran-4-yl)-1,5-dihydro-4H-pyrazolo[3,4-d]pyrimidin-4-one] | 32 |
| Cc1cccc2oc(CSc3nc4c(cnn4-c4ccccc4)c(=O)[nH]3)nc12 [Example 26, 6-(((4-methylbenzo[d]oxazol-2-yl)methyl)thio)-1-phenyl-1,5-dihydro-4H-pyrazole[3,4-d]pyrimidin-4-one] | 140 |
